{"source": "ChEMBL document CHEMBL1150664", "about": "“New bioactive peroxides from marine sponges of the family plakiniidae” (2002)", "data": [{"system": "Candida albicans", "test": "Antimicrobial activity against Candida albicans by standard microdilution broth method", "type": "functional", "units": {"MIC": "µg/mL"}, "values": [{"smiles": "CC(CCCCCCC/C=C/C=C/c1ccccc1)C[C@]1(C)C[C@@](C)(CC(=O)O)OO1", "note": "(relative stereo)", "MIC": 1.6}, {"smiles": "CC/C=C/C(CC)C/C=C/[C@@]1(CC)C[C@H](CC)[C@@H](CC(=O)O)OO1", "note": "(stereo partly specified)", "MIC": 5}, {"smiles": "Nc1nc(=O)[nH]cc1F", "note": "[FLUCYTOSINE]", "MIC": 1.62}, {"smiles": "CC(CCCCCCC/C=C/C=C/c1ccccc1)C[C@]1(C)C[C@](C)(CC(=O)O)OO1", "note": "(relative stereo)", "MIC": 1.6}]}, {"system": "Aspergillus fumigatus", "test": "Antimicrobial activity against Aspergillus fumigatus by standard microdilution broth method", "type": "functional", "units": {"IC90": "µg/mL"}, "values": [{"smiles": "C[C@@H]1[C@H](O)[C@@H](C)/C=C/C=C/C=C/C=C/C=C/C=C/C=C/[C@H](O[C@@H]2O[C@H](C)[C@@H](O)[C@H](N)[C@@H]2O)C[C@@H]2O[C@](O)(C[C@@H](O)C[C@@H](O)[C@H](O)CC[C@@H](O)C[C@@H](O)CC(=O)O[C@H]1C)C[C@H](O)[C@H]2C(=O)O", "note": "[AMPHOTERICIN B]", "IC90": 1}, {"smiles": "CC/C=C/C(CC)C/C=C/[C@@]1(CC)C[C@H](CC)[C@@H](CC(=O)O)OO1", "note": "(stereo partly specified)", "IC90": 5.6}]}]}
